Consider two molecules from patent US20150306107A1, “SAA Derivative Compound Restores eNOS And Inhibits Oxidative Stress-Induced A Diseases In Hypoxia” (JANSFAT BIOTECHNOLOGY CO., LTD., priority 2014, published 2015).

Assay [1] deals with eNOS. Nature of the assay: Western blotting of eNOS expression in isolated rat pulmonary artery ring, short-term (acute) hypoxia or normoxia. In kind it is cell-based. The note with it: isolated pulmonary artery, acute hypoxia. How it is done: (§1) In our in vitro short-term experiment, isolated rat pulmonary artery was grown under normoxia (20% O2) or hypoxia (1% O2) at 37° C. for 24 hrs as was previously done (Wu BN, et al. Int J Immunopathol Pharmacol 24:925, 2011). The heart weight and body weight ratio (HW/BW) of the rats treated with one of SPAAX-1, SPAAX-1 RX complex, Sildenafil or Sildenafil RX complex each measured on the 21st hypoxic day. All animal care and the experimental protocols of this study were approved by the Animal Care and Use Committee of the Kaohsiung Medical University. Male Wistar rats (200-250 g), provided by the National Laboratory Animal Breeding and Research Center (Taipei, Taiwan), were housed under constant temperature and controlled illumination. Food and water were available ad libitum.
(§2) Whole right lung tissues of hypoxia-treated and untreated rats were isolated and cut into small strips and placed into an extraction buffer (Tris 10 mM, pH 7.0, NaCl 140 mM, PMSF 2 mM, DTT 5 mM, NP-40 0.5%, pepstatin A 0.05 mM and leupeptin 0.2 mM) for protein extraction, and then centrifuged at 12,500 g for 30 min. To measure the expression levels of the proteins, the total proteins were extracted and Western blotting analysis was performed as described previously (Bivalacqua T J, et al., 2013, TJ PLoSONE 8: e68028. doi:10.1371/journal. pone.0068028). Briefly, the protein extract was boiled to a ratio of 4:1 with a sample buffer (Tris 100 mM, pH 6.8, glycerol 20%, SDS 4% and bromophenol blue 0.2%). Electrophoresis was performed using 10% SDS-polyacrylamide gel (2 hr, 100 V, 40 mA, […] protein per lane). Separated proteins were transferred to PVDF membranes treated with 5% fat-free milk powder to block the nonspecific IgGs (90 min, 100 V) and incubated for one hour with a specific protein antibody. The blot was then incubated with anti-mouse or anti-goat IgG linked to alkaline phosphatase (1:1000) for 1 hr. Immunoreactive bands were visualized using horseradish peroxidase-conjugated secondary antibodies and subsequent electrochemiluminescence (ECL) detection (GE Healthcare Bio-Sciences Corp., Piscataway, N.J., U.S.A.). Mouse or rabbit monoclonal antibody of eNOS (Upstate, N.Y., U.S.A.), sGCα (Sigma-Adrich, CA, U.S.A., sGCβ (Santa Cruz, Calif., U.S.A.), PDE-5A (BD Tansduction, San Jose, Calif., U.S.A.), PKG (Calbiochem, San Diego, Calif., U.S.A.) ROCKII (Upstate, N.Y., U.S.A.), RhoA (Santa Cruze, Calif., U.S.A.) and the loading control protein β-actin (Sigma-Adrich, MO, U.S.A.) were used in our Western blot analysis.
(§3) The Western blotting analysis measurements were performed as per lung tissue.

Assay [2] concerns VEGF. Description: Western blotting of VEGF expression in isolated rat pulmonary artery ring, short-term (acute) hypoxia. The note with it: isolated pulmonary artery. In kind it is cell-based. Here is the method:
as §1, §2, §3
Background: A western blot detects proteins with antibodies after separation by electrophoresis.

The subject of assay [3] is sGCα1. Nature of the assay: Western blotting of sGCα1 expression in isolated pulmonary artery, short-term hypoxia. In kind it is cell-based, rat. How it is done:
as §1
Whole right lung tissues of hypoxia-treated and untreated rats were isolated and cut into small strips and placed into an extraction buffer (Tris 10 mM, pH 7.0, NaCl 140 mM, PMSF 2 mM, DTT 5 mM, NP-40 0.5%, pepstatin A 0.05 mM and leupeptin 0.2 mM) for protein extraction, and then centrifuged at 12,500 g for 30 min. To measure the expression levels of the proteins, the total proteins were extracted and Western blotting analysis was performed as described previously (Bivalacqua T J, et al., 2013, TJ PLoSONE 8: e68028. doi:10.1371/journal. pone.0068028). […]

Assay [4] concerns hypoxic rats. Nature of the assay: Hemodynamics of rats with hypoxic PAH, chronic hypoxia 21 days. The note with it: 5 mg/kg/day, p.o. In kind it is in vivo, rat. From the text: Int J Immunopathol Pharmacol 24:925, 2011). The heart weight and body weight ratio (HW/BW) of the rats treated with one of […] complex, Sildenafil or Sildenafil RX complex each measured on the 21st hypoxic day. All animal care and the experimental protocols of this study were approved by the Animal Care and Use Committee of the Kaohsiung Medical University. Male Wistar rats (200-250 g), provided by the National Laboratory Animal Breeding and Research Center (Taipei, Taiwan), were housed under constant temperature and controlled illumination. Food and water were available ad libitum. Normoxic rats were housed in room temperature air at normal atmospheric pressure (760 mm Hg). […] After completion of the exposure, tissues were prepared as indicated for contraction measurements, Western blot analysis, RNA extraction, or morphological analysis. […] Their breathing was normal and their body temperature was maintained at 37° C. […] The animals were then sacrificed by the administration of an overdose of urethane.

Assay [5] relates to hypoxic rats. Nature of the assay: Pulmonary artery wall thickness and muscularization (HE staining) after long-term hypoxia. In kind it is in vivo, rat. How it is done:
(§4) The right lobes of the rat lungs and heart of six rats from each group were cut and soaked in formalin, dehydrated through graded alcohols, and embedded in paraffin wax. The lung tissue specimens fixed with formalin (4%) were embedded in paraffin for one hour at 4° C., cut into 4-μm-thick sections, and subjected to H&E staining before examination by light microscope. In our histopathological study, we measured the thickening of the medial wall of the small intrapulmonary arteries under an Eclipse TE2000-S (Nikon) microscope. In the heart tissues, the 4-μm-thick paraffin sections were cut from paraffin-embedded tissue blocks and de-paraffinized by immersion in xylene and rehydrated as previously described (Bivalacqua T J, et al., PLoSONE 8: e68028. doi:10.1371/journal. pone.0068028). The slices were then dyed with H&E. After gently rinsing with water, each slide was dehydrated through graded alcohols and finally soaked in xylene twice. The relative cardiac weight of right ventricle (RV)/[left ventricle (LV)+intraventricular septum (S)] ratio (i.e. right heart index) was calculated using right ventricle/left ventricle+septum (RV/LV+S). Measurements were obtained with Histolab software (Microvision Instruments, Evry, France).

Assay [6] concerns hypoxic rats. Description: Right ventricular hypertrophy (RV/LV+S, right heart index) after long-term hypoxia. In kind it is in vivo, rat. The note with it: compared to the hypoxia state. Here is the method: as §4
Assay [7] deals with eNOS. Nature of the assay: Immunohistochemistry of eNOS in pulmonary artery wall after long-term hypoxia. The assay is classed as in vivo, rat. Here is the method:
(§5) For histological analysis, the rat pulmonary right lung sections or pulmonary artery were fixed in 4% formaldehyde for 1 hour at 4° C. After washing with phosphate buffer saline (PBS), they were sent for paraffin-embedded serial-sections. Serial cross-sections 7 μm thick were obtained from the cross-section of each pulmonary artery. Tissue sections were deparaffinized and rehydrated in an ethanol series. After tissue rehydration, endogenous peroxidase activity was quenched with 3% hydrogen peroxide for 30 minutes, and the sections were gently washed in PBS. Non-specific binding was blocked by incubation with 1% nonimmune bovine serum albumin (BSA) in PBS for 30 minutes at room temperature.
(§6) The tissue sections were incubated for 1 hour at room temperature with antibody against VEGF (ab1442, Millipore) or against eNOS (ab5589, Abcam) diluted 1:200 in PBS with 1% BSA. After being washed with PBS, the sections were incubated for 1 hour at room temperature with biotinylated goat antibody against rabbit (Dako, E-0432) and diluted 1:200 in PBS for 30 minutes at room temperature. The reaction was visualized by the addition of 3-3-diaminobenzidine (DAB) in a working solution of DAB substrate kit for peroxidase (vector lab, SK-4100) at room temperature for 5 minutes. The sections were washed in PBS for 10 minutes between each step, and counterstained with haematoxylin. […]

For assay [8], the system named is VEGF. Description: Immunohistochemistry of VEGF in pulmonary artery wall after long-term hypoxia. In kind it is in vivo, rat. How it is done: as §5, §6
The test system of assay [9] is eNOS. Description: Western blotting of eNOS in lung tissue after long-term hypoxia. The note with it: hypoxia 21 days; compared to normoxia control. The assay is classed as in vivo, rat.
Assay [10] concerns sGCα1. Nature of the assay: Western blotting of sGCα1 in lung tissue after long-term hypoxia. The conditions noted are these: hypoxia 21 days; compared to normoxia control. The assay is classed as in vivo, rat.
A further assay relates to PKG. Description: Western blotting of PKG in lung tissue after long-term hypoxia. The assay is classed as in vivo, rat. The note with it: hypoxia 21 days. How it is done: as §2, with “Mouse or rabbit monoclonal antibody of eNOS (Upstate, N.Y., U.S.A.), sGCα (Sigma-Adrich, CA, U.S.A., sGCβ (Santa Cruz, Calif., U.S.A.), PDE-5A (BD Tansduction, San Jose, Calif., U.S.A.), PKG (Calbiochem, San Diego, Calif., U.S.A.) ROCKII (Upstate, N.Y., U.S.A.), RhoA (Santa Cruze, Calif., U.S.A.) and the loading control protein β-actin (Sigma-Adrich, MO, U.S.A.) were used in our Western blot analysis.” left out

Another assay concerns ROCK II. Nature of the assay: Western blotting of ROCK II in lung tissue after long-term hypoxia. In kind it is in vivo, rat. The conditions noted are these: hypoxia 21 days; hypoxia 144.7±12.6%.
The test system of assay [11] is VEGF. Description: Western blotting of VEGF in lung tissue after long-term hypoxia. The conditions noted are these: hypoxia 21 days; hypoxia 168.9±24.6%. In kind it is in vivo, rat.
In another assay the test system is PDE5A. The conditions noted are these: hypoxia 21 days; % of the normal level; hypoxia 43.8±12.6%.
Assay [12] relates to reactive oxygen species (ROS) of lung tissues. The conditions noted are these: long-term hypoxia.
Protocol: In our in vivo hypoxic experiments, 10-week old male Wistar rats were equally divided into four groups: a normoxia group, a hypoxia group, a hypoxia+SPAAX-1 or SPAAX-1 RX complex group, and a hypoxia+Sildenafil or Sildenafil RX complex group. All the rats were maintained on a 12-h light/12-hr dark cycle at 25±1° C. and were provided with food and water ad libitum. The normoxia group was housed in standard normoxic conditions and the other three treated groups were continuously housed in a hypoxic chamber (10% O2) for 21 days, except for a 30-min interval each day when the chamber was cleaned (FIG. 2). During which, a normoxic gas mixture was prepared from compressed air.
Pulmonary ROS was measured using 2′-7′-dichloro-fluorescein (H2DCF-DA, Molecular Probe, USA). Briefly, 10 μl of lung tissue extract was diluted 100-fold with cold PBS and labelled with 5 μmol/L 2′-7′-dichlorofluorescein, and the mixture was incubated at 37° C. for 30 minutes and put in a centrifuge (1000 rpm) for 5 min. Fluorescence was measured at 485 nm excitation and 530 nm emission to determine the concentration of H2O2 (FLUOstar Galaxy, Germany).
Another assay concerns NOx in lung tissue. The conditions noted are these: 21 days of hypoxia; control group 100%, hypoxia 59.8±3.7%.
For assay [13], the system named is eNOS. Description: Immunohistochemistry of eNOS in isolated pulmonary artery after short-term hypoxia. The assay is classed as cell-based, rat. The note with it: short-term acute hypoxia; 40, 80 μM. Here is the method: as §1
(§7) For histological analysis, the rat pulmonary right lung sections or pulmonary artery were fixed in 4% formaldehyde for 1 hour at 4° C. After washing with phosphate buffer saline (PBS), they were sent for paraffin-embedded serial-sections. Serial cross-sections 7 μm thick were obtained from the cross-section of each pulmonary artery. Tissue sections were deparaffinized and rehydrated in an ethanol series. After tissue rehydration, endogenous peroxidase activity was quenched with 3% hydrogen peroxide for 30 minutes, and the sections were gently washed in PBS. […]

For assay [14], the system named is VEGF. Nature of the assay: Immunohistochemistry of VEGF in isolated pulmonary artery after short-term hypoxia. In kind it is cell-based, rat. The note with it: short-term acute hypoxia; 40, 80 μM. Here is the method: as §1, §7

Protocol for NOx in lung tissue: All the rats were maintained on a 12-h light/12-hr dark cycle at 25±1° C. and were provided with food and water ad libitum. The normoxia group was housed in standard normoxic conditions and the other three treated groups were continuously housed in a hypoxic chamber (10% O2) for 21 days, except for a 30-min interval each day when the chamber was cleaned (FIG. 2). During which, a normoxic gas mixture was prepared from compressed air.
Production of NO, represented by its metabolite nitrate+nitrite (NOx), in lung tissue extracts was determined using the Griess method (Chung H H et al, Br J Pharmacol 160: 971, 2010; Vascular Pharmacology 53: 239, 2010). The three step Greiss test converts nitrate (NO3^−) into nitrite (NO2^−), resulting in a total NO2^− concentration from a standard calibration curve. The lung tissue extracts were homogenized, washed with PBS and incubated in a lysis buffer in addition to a protease inhibitor cocktail (Sigma, St. Louis, Mo.) to obtain the extracts of lung proteins. […] The samples were then incubated (25° C, 10 min) with Griess reagent [N-(1-naphthyl)-ethylenediamine: 0.2% (w/v), sulphanilamide: 2% (w/v), solubilized in double-distilled water: 95% and phosphoric acid: 5% (v/v)] and the absorbance measured at 540 nm. […]

Regarding `CCCc1nn(C)c2c(=O)[nH]c(-c3cc(S(=O)(=O)N4CCN(C)CC4)ccc3OCC)nc12.O=C1OC(C(O)CO)C(O)=C1O` [Sildenafil ascorbate complex], the “eNOS in acute hypoxia” value in the assay with eNOS [1] was “restored”. Moreover, in the assay on VEGF [2], the “VEGF in acute hypoxia” value is on record as “inhibited”. Besides, the SGC-a in hypoxia entry with sGCα1 [3] is recorded as “neither SPAAX-1 ascorbate complex nor Sildenafil ascorbate complex significantly affected”. Besides, in the assay with hypoxic rats [4], the “BW (body weight)” value is listed as 275.1 ± 10.4 g. Moreover, the “MPAP (mean pulmonary arterial pressure)” value in the assay on hypoxic rats [4] (normoxia 12.9 ± 0.9, hypoxia 26.5 ± 0.6) is given as 19.8±0.7 mmHg. In addition, the “hypoxia-induced pulmonary artery wall thickness” value with hypoxic rats [5] (hypoxia 21 days, 5 mg/kg/day, hypoxia 165.8±5.4%) was “inhibited”. Also, the “muscularizations of distal pulmonary artery (HE staining)” value in the assay on hypoxic rats [5] (hypoxic rats, versus vehicle only) is “significantly lower”. In addition, in the assay on hypoxic rats [6], the “thickness of Right ventricular” value is “reduced”. In addition, the “eNOS immunostaining reactivity of pulmonary artery” value in the assay with eNOS [7] is reported as “restored the decay of eNOS”. The “VEGF immunostaining reactivity of pulmonary artery” value in the assay with VEGF [8] was “reduced”. Further, the “eNOS expression in lung tissue” value in the assay with eNOS [9] is 102.6±7.7%. In the assay with sGCα1 [10], the “sGCα1 expression in lung tissue” value was 72.0±4.7%. In the assay with PKG, the “PKG expression in lung tissue” value amounted to 68.7±3.7%. The “ROCKII expression in lung tissue” value in the assay with ROCK II is 97.4±10.9%. Further, in the assay with VEGF [11], the “VEGF expression in lung tissue” value came out at 125.7±22.5%. Also, the “PDE5A expression in lung tissue” value in the assay on PDE5A turned out to be 109.0±3.8%. Also, in [12], the “hypoxia-induced increase of dichlorofluorescein (ROS of lung tissues)” value is recorded as “reduced”. Moreover, in the assay on NOx in lung tissue, the “levels of NOx in lung tissue” value is 84.5±14.2%.

With “L-sodium ascorbate+L-ascorbic acid buffer [ascorbic/ascorbate buffer]”, in the assay on eNOS [13], the “IHC of eNOS in isolated pulmonary artery” value is listed as “reduced”. Besides, the “IHC of VEGF in isolated pulmonary artery” value in the assay on VEGF [14] is recorded as “reduced”.
